The assay has as its system Microfilaria of Dirofilaria immitis. Put plainly: Method A: screening of compounds against microfilaria of Dirofilaria immitis (microtitre plate, survival at 72 hours). The assay is classed as cell-based. The note with it: read-out: mean EC50 values.

For orientation: EC50 means the concentration giving half of the maximal effect. Consider `C[C@H]1OC(=O)[C@H](CC(C)(C)C)N(C)C(=O)[C@@H](Cc2ccc(SC(F)(F)F)cc2)OC(=O)[C@H](CC(C)(C)F)N(C)C(=O)[C@@H](C)OC(=O)[C@H](CC(C)(C)C)N(C)C(=O)[C@@H](Cc2ccc(SC(F)(F)F)cc2)OC(=O)[C@H](CC(C)(C)F)N(C)C1=O` [44-46/1-4, (3S,6R,9S,12R,15S,18R,21S,24R)-3,15-bis(2-fluoro-2-methylpropyl)-4,6,10,16,18,22-hexamethyl-9,21-dineopentyl-12,24-bis(4-(trifluoromethylthio)benzyl)-1,7,13,19-tetraoxa-4,10,16,22-tetraazacyclotetracosan-2,5,8,11,14,17,20,23-octaone], for which the EC50 was below 1000 nM.
